Laboratory results from PubChem BioAssay (NCI).
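Protocol summary: plate cells (96-well), add compound at 5 concentrations, incubate 48 h, interpolate endpoints linearly. The concentration for 50% growth inhibition is given as GI50. TGI: total growth inhibition.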

Tested on: MDA-MB-468 breast
Test: NCI tumour cell line growth inhibition, 48 h

| Compound | GI50 | TGI |
| --- | --- | --- |
| CC(=O)Nc1ccc(OC(C)=O)cc1 | < 0.01 µM | < 0.101 µM |
| Cc1ccc(-c2nc(/C=N/Nc3cc(C)nc4ccc(Br)cc34)c(C)o2)cc1 | 1.95 µM | 3.87 µM |
| COc1c(O)cc2c(c1OC)-c1ccc(SC)c(=O)cc1C(NC(C)=O)CC2 (centres undefined) | 3.02 µM | > 100 µM |
| COc1cc(NS(C)(=O)=O)ccc1Cc1c2ccccc2nc2ccccc12 | 0.31 µM | 1.81 µM |
| Cc1c[nH]c(=O)n(Cc2nnc(CCC(=O)c3nc4ccccc4[nH]3)o2)c1=O | 0.156 µM | 0.553 µM |
| CC[C@H]1CCC/C=C/[C@@H]2C[C@H](O)C[C@H]2[C@H](O)/C=C/C(=O)O1 |  | 0.0167 µM |
| Fc1ccc(-c2ncn(CCCN3CCOCC3)c2-c2ccncc2)cc1 | > 25 µM | > 25 µM |
| COC(=O)C1=C(C(=O)ON)[C@@H]2C=C[C@@]1([C@@H](Cc1ccccc1)Nc1ccccc1)O2 | 1.48 µM | 2.97 µM |
| O=c1oc2ccc(Cl)cc2c(=O)n1-c1ccc(F)cc1F | 1.98 µM | 5.71 µM |
| O=C(CCCC(=O)N/N=C/c1cc(Cl)ccc1O)N/N=C\c1cc(Cl)ccc1O | 2.22 µM | 9.3 µM |
| CC1=C2[C@@H](CC1)[C@]1(C)O[C@@](C(C)C)(C[C@H]1OC(=O)CO)[C@H]2OC(=O)CCCc1ccccc1 | 12.4 µM | 26.3 µM |
| O=[N+]([O-])c1ccc(N=Nc2c(Cl)cc(O)cc2Cl)cc1 | 0.772 µM | 5.81 µM |
| O=C(c1ccccc1)C1OC1C(=O)c1ccccc1 (centres undefined) | 1.71 µM | 6.72 µM |
| COc1ccc2nc3c(cc2c1)C(=O)CC(c1ccccc1)C3 (centres undefined) | 4.08 µM | > 100 µM |
| CCc1cccc(NC(=O)Nc2ccc(Oc3ccc4nc(NC(=O)OC)[nH]c4c3)cc2)c1 | 0.0751 µM | 2.96 µM |
| CCN(CC)CCn1c(=O)c2cc(OC)c(OC)cc2c2ccc3cc4c(cc3c21)OCO4 | 0.84 µM | 19.8 µM |
| CCCS(=O)(=O)Nc1cccc(Nc2ncnc3cc(NC(=O)CCl)ccc23)c1Cl | 3.16 µM | 8.52 µM |
| CC(C)=Cc1cccc2[nH]c(O)c(N=Nc3ccc(S(N)(=O)=O)cc3)c12 | > 5.22 µM | > 25 µM |
| C#Cc1cccc(NC(=O)c2cccc(NC(=O)CCl)c2)c1 | 17.4 µM | 52.7 µM |
| O=c1cc(-c2ccccc2)oc2c1ccc1ccccc12 | 23.6 µM | 95.4 µM |
| CC[C@]12C=CCN3CC[C@@]4(c5ccc(OC)cc5N(C)[C@H]4[C@@](O)(C(=O)OC)[C@@H]1OC(=O)CCC(=O)O[C@H]1CC[C@H]4[C@@H]5CC[C@H]6CC(=O)CC[C@]6(C)[C@H]5CC[C@]14C)[C@@H]32 | 3.13 µM | > 100 µM |
| COc1ccc(C2=NN(C(C)=O)C(c3ccc(Oc4ccnc5cc(Cl)ccc45)c(OC)c3)C2)cc1 (centres undefined) | 7.43 µM | 65.1 µM |
| CCOC(=O)Nc1ccc2c(c1)C(=O)N(CC)c1ccccc1O2 | 0.201 µM |  |
| O=C1c2cc3c(cc2-c2c1c1ccc(F)cc1c(=O)n2C[C@H](O)[C@H](O)[C@H](O)CO)OCO3 | 0.0646 µM | 0.213 µM |
| COc1cc2c(cc1O)c(=O)n(CCN(C)C)c1c3cc4c(cc3ncc21)OCO4 | < 0.01 µM | 0.014 µM |
| CCn1c(SCC(=O)Nc2cc(C(F)(F)F)ccc2Cl)nc2ccccc2c1=O | 14 µM | > 100 µM |
| CCOC(=O)c1c2c(n3ccc(NC(=O)CCN4CCCCC4)cc13)C(=O)c1ncccc1C2=O | 1.76 µM | 3.39 µM |
| COc1ccc([C@@H]2[C@@H](O)C(=O)N2c2cc(OC)c(OC)c(OC)c2)cc1Cl | < 0.0141 µM | > 35.9 µM |
